Test results from patent publication US20250353891A1 (MEDIMMUNE LIMITED, priority 2022, published 2025).
Starred links: 1 amine or outer side, 2 acyl side, 3 side chain; linkers in the order of their positions; H or OH if unused. Non-standard residues stand in square brackets, D forms with d. Residues, ends and D or L forms follow the SMILES beside them. Groups on a side chain read outwards from the residue. *: point of attachment. C20 diacid = O=C(O)CCCCCCCCCCCCCCCCCCC(=O)*; C18 diacid = O=C(O)CCCCCCCCCCCCCCCCC(=O)*; γGlu = O=C(O)[C@H](CCC(=O)[*:2])N[*:1]; αMeF = C[C@](N)(Cc1ccccc1)C(=O)O; AEEA = NCCOCCOCC(=O)O; Aib = CC(C)(N)C(=O)O

How the values were obtained:
[1] = target: human GLP-1 receptor (hGLP-1R) (Homo sapiens, UniProt P43220); experiment: cAMP production (HTRF) in CHO cells expressing hGLP-1R; assay type: cell-based; design: expressed in transfected cells; conditions: for EC50: Table 6, peptides modified at position 17, cAMP in CHO hGLP-1R cells, geometric mean, read-out: hGLP-1R EC50; for % Relative Potency Ratio: Table 6, % GLP-1R activity relative to GLP-1 / % GlucR activity relative to glucagon
Method in brief: (§1)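 Potency values represent EC50 from 4-parameter logistic curves of HTRF % Delta F signal. Receptor-expressing CHO cells (hGCGR 2×10^5 cells/mL, hGLP-1R 1×10^5 cells/mL) were exposed for 30 min at room temperature before two-step cAMP detection.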

[2] = target: human glucagon receptor (hGCGR) (Homo sapiens, UniProt P47871); experiment: cAMP production (HTRF) in CHO cells expressing hGCGR; assay type: cell-based; design: expressed in transfected cells; conditions: Table 6, peptides modified at position 17; cAMP in CHO hGCGR cells; geometric mean; read-out: hGluc-R EC50
Method in brief: as §1

Chain of human GLP-1 receptor (hGLP-1R) (P43220 24-463): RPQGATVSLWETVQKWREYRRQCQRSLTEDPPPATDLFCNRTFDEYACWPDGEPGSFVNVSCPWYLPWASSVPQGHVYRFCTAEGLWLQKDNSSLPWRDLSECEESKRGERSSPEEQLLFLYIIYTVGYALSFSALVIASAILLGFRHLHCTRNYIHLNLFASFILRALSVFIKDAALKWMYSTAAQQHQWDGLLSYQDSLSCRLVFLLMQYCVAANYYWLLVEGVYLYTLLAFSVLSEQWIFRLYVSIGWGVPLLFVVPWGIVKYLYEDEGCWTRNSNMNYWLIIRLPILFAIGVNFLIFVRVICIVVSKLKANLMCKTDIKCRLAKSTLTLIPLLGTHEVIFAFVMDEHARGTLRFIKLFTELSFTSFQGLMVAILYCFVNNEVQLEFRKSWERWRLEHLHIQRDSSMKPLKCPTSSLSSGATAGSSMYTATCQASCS
Chain of human glucagon receptor (hGCGR) (P47871 26-477): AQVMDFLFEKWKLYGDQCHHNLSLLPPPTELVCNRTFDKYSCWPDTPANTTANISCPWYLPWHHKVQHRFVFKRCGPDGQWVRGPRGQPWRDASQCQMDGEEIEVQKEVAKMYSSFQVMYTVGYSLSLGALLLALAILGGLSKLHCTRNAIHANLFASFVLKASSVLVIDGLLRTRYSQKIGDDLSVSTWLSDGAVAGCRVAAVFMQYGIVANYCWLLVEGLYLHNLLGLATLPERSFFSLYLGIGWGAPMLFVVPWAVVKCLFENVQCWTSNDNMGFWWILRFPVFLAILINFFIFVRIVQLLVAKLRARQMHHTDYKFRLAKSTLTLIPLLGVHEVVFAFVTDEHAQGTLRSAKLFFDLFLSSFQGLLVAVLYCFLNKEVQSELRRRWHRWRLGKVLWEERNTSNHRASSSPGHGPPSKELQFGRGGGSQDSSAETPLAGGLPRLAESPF

SMILES | EC50 [1] [nM] | % Relative Potency Ratio [1] | EC50 [2] [nM]
CC(C)C[C@H](NC(=O)[C@H](Cc1c[nH]c2ccccc12)NC(=O)[C@H](CCC(N)=O)NC(=O)[C@@H](NC(=O)[C@H](Cc1ccccc1)NC(=O)[C@H](CC(=O)O)NC(=O)[C@H](CCC(N)=O)NC(=O)[C@H](C)NC(=O)[C@H](CCCNC(=N)N)NC(=O)[C@H](CCCCNC(=O)COCCOCCNC(=O)COCCOCCNC(=O)CC[C@H](NC(=O)CCCCCCCCCCCCCCCCCCC(=O)O)C(=O)O)NC(=O)[C@@H](NC(=O)[C@H](CC(=O)O)NC(=O)[C@H](CC(C)C)NC(=O)[C@](C)(Cc1ccccc1)NC(=O)[C@H](CCCCN)NC(=O)[C@H](CO)NC(=O)[C@@H](NC(=O)[C@H](CC(=O)O)NC(=O)[C@H](CO)NC(=O)[C@@H](NC(=O)[C@H](Cc1ccccc1)NC(=O)[C@@H](NC(=O)CNC(=O)[C@H](CCC(N)=O)NC(=O)C(C)(C)NC(=O)[C@@H](N)Cc1c[nH]cn1)[C@@H](C)O)[C@@H](C)O)C(C)C)[C@@H](C)O)C(C)C)C(=O)N[C@@H](CC(C)C)C(=O)NC(C)(C)C(=O)N[C@@H](CCC(=O)O)C(N)=O [Peptide 485] (H-H[Aib]QGTFTSDVSK[αMeF]LDTK([AEEA-AEEA-γGlu-C20 diacid])RAQDFVQWLL[Aib]E-NH2; N-terminus assumed) | 0.219 | 0.8 | 0.0904
CC(C)C[C@H](NC(=O)[C@H](CC(=O)O)NC(=O)[C@H](CC(C)C)NC(=O)[C@](C)(Cc1ccccc1)NC(=O)[C@H](CCCCN)NC(=O)[C@H](CO)NC(=O)[C@@H](NC(=O)[C@H](CC(=O)O)NC(=O)[C@H](CO)NC(=O)[C@@H](NC(=O)[C@H](Cc1ccccc1)NC(=O)[C@@H](NC(=O)CNC(=O)[C@H](CCC(N)=O)NC(=O)C(C)(C)NC(=O)[C@@H](N)Cc1c[nH]cn1)[C@@H](C)O)[C@@H](C)O)C(C)C)C(=O)N[C@@H](CCCCNC(=O)COCCOCCNC(=O)COCCOCCNC(=O)CC[C@H](NC(=O)CCCCCCCCCCCCCCCCCCC(=O)O)C(=O)O)C(=O)N[C@@H](CCCNC(=N)N)C(=O)N[C@@H](C)C(=O)N[C@@H](CCC(N)=O)C(=O)N[C@@H](CC(=O)O)C(=O)N[C@@H](Cc1ccccc1)C(=O)N[C@H](C(=O)N[C@@H](CCCNC(=N)N)C(=O)N[C@@H](Cc1c[nH]c2ccccc12)C(=O)N[C@@H](CC(C)C)C(=O)N[C@@H](CC(C)C)C(=O)NC(C)(C)C(=O)N[C@@H](CCC(=O)O)C(=O)O)C(C)C [Peptide 486] | 0.42 | 0.8 | 0.166
CC(C)C[C@H](NC(=O)[C@H](Cc1c[nH]c2ccccc12)NC(=O)[C@H](CCC(N)=O)NC(=O)[C@@H](NC(=O)[C@H](Cc1ccccc1)NC(=O)[C@H](CC(=O)O)NC(=O)[C@H](CCCNC(=N)N)NC(=O)[C@H](C)NC(=O)[C@H](CCCNC(=N)N)NC(=O)[C@H](CCCCNC(=O)COCCOCCNC(=O)COCCOCCNC(=O)CC[C@H](NC(=O)CCCCCCCCCCCCCCCCC(=O)O)C(=O)O)NC(=O)[C@@H](NC(=O)[C@H](CC(=O)O)NC(=O)[C@H](CC(C)C)NC(=O)[C@](C)(Cc1ccccc1)NC(=O)[C@H](CCCCN)NC(=O)[C@H](CO)NC(=O)[C@@H](NC(=O)[C@H](CC(=O)O)NC(=O)[C@H](CO)NC(=O)[C@@H](NC(=O)[C@H](Cc1ccccc1)NC(=O)[C@@H](NC(=O)CNC(=O)[C@H](CCC(N)=O)NC(=O)C(C)(C)NC(=O)[C@@H](N)Cc1c[nH]cn1)[C@@H](C)O)[C@@H](C)O)C(C)C)[C@@H](C)O)C(C)C)C(=O)N[C@@H](CC(C)C)C(=O)NC(C)(C)C(=O)N[C@H](C(=O)N[C@@H](CCC(=O)O)C(=O)O)[C@@H](C)O [Peptide 487] (H-H[Aib]QGTFTSDVSK[αMeF]LDTK([AEEA-AEEA-γGlu-C18 diacid])RARDFVQWLL[Aib]TE-OH) | 0.0655 | 5.0 | 0.164
CC(C)C[C@H](NC(=O)[C@H](Cc1c[nH]c2ccccc12)NC(=O)[C@H](CCC(N)=O)NC(=O)[C@@H](NC(=O)[C@H](Cc1ccccc1)NC(=O)[C@H](CC(=O)O)NC(=O)[C@H](CCCNC(=N)N)NC(=O)[C@H](C)NC(=O)[C@H](CCCNC(=N)N)NC(=O)[C@H](CCCCNC(=O)COCCOCCNC(=O)COCCOCCNC(=O)CC[C@H](NC(=O)CCCCCCCCCCCCCCCCCCC(=O)O)C(=O)O)NC(=O)[C@@H](NC(=O)[C@H](CC(=O)O)NC(=O)[C@H](CC(C)C)NC(=O)[C@](C)(Cc1ccccc1)NC(=O)[C@H](CCCCN)NC(=O)[C@H](CO)NC(=O)[C@@H](NC(=O)[C@H](CC(=O)O)NC(=O)[C@H](CO)NC(=O)[C@@H](NC(=O)[C@H](Cc1ccccc1)NC(=O)[C@@H](NC(=O)CNC(=O)[C@H](CCC(N)=O)NC(=O)C(C)(C)NC(=O)[C@@H](N)Cc1c[nH]cn1)[C@@H](C)O)[C@@H](C)O)C(C)C)[C@@H](C)O)C(C)C)C(=O)N[C@@H](CC(C)C)C(=O)NC(C)(C)C(=O)N[C@H](C(=O)N[C@@H](CCC(=O)O)C(=O)O)[C@@H](C)O [Peptide 488] (H-H[Aib]QGTFTSDVSK[αMeF]LDTK([AEEA-AEEA-γGlu-C20 diacid])RARDFVQWLL[Aib]TE-OH; N-terminus assumed) | 0.202 | 2.9 | 0.301
CC(C)C[C@H](NC(=O)[C@H](Cc1c[nH]c2ccccc12)NC(=O)[C@H](CCC(N)=O)NC(=O)[C@@H](NC(=O)[C@H](Cc1ccccc1)NC(=O)[C@H](CC(=O)O)NC(=O)[C@H](CCCNC(=N)N)NC(=O)[C@H](C)NC(=O)[C@H](CCCNC(=N)N)NC(=O)[C@H](CCCCNC(=O)COCCOCCNC(=O)COCCOCCNC(=O)CC[C@H](NC(=O)CCCCCCCCCCCCCCCCC(=O)O)C(=O)O)NC(=O)[C@@H](NC(=O)[C@H](CC(=O)O)NC(=O)[C@H](CC(C)C)NC(=O)[C@](C)(Cc1ccccc1)NC(=O)[C@H](CCCCN)NC(=O)[C@H](CO)NC(=O)[C@@H](NC(=O)[C@H](CC(=O)O)NC(=O)[C@H](CO)NC(=O)[C@@H](NC(=O)[C@H](Cc1ccccc1)NC(=O)[C@@H](NC(=O)CNC(=O)[C@H](CCC(N)=O)NC(=O)C(C)(C)NC(=O)[C@@H](N)Cc1c[nH]cn1)[C@@H](C)O)[C@@H](C)O)C(C)C)[C@@H](C)O)C(C)C)C(=O)N[C@@H](CC(C)C)C(=O)NC(C)(C)C(=O)N[C@H](C(=O)N[C@@H](CCC(=O)O)C(N)=O)[C@@H](C)O [Peptide 489] (H-H[Aib]QGTFTSDVSK[αMeF]LDTK([AEEA-AEEA-γGlu-C18 diacid])RARDFVQWLL[Aib]TE-NH2; N-terminus assumed) | 0.0228 | 14.5 | 0.168
CC(C)C[C@H](NC(=O)[C@H](Cc1c[nH]c2ccccc12)NC(=O)[C@H](CCC(N)=O)NC(=O)[C@@H](NC(=O)[C@H](Cc1ccccc1)NC(=O)[C@H](CC(=O)O)NC(=O)[C@H](CCCNC(=N)N)NC(=O)[C@H](C)NC(=O)[C@H](CCCNC(=N)N)NC(=O)[C@H](CCCCNC(=O)COCCOCCNC(=O)COCCOCCNC(=O)CC[C@H](NC(=O)CCCCCCCCCCCCCCCCCCC(=O)O)C(=O)O)NC(=O)[C@@H](NC(=O)[C@H](CC(=O)O)NC(=O)[C@H](CC(C)C)NC(=O)[C@](C)(Cc1ccccc1)NC(=O)[C@H](CCCCN)NC(=O)[C@H](CO)NC(=O)[C@@H](NC(=O)[C@H](CC(=O)O)NC(=O)[C@H](CO)NC(=O)[C@@H](NC(=O)[C@H](Cc1ccccc1)NC(=O)[C@@H](NC(=O)CNC(=O)[C@H](CCC(N)=O)NC(=O)C(C)(C)NC(=O)[C@@H](N)Cc1c[nH]cn1)[C@@H](C)O)[C@@H](C)O)C(C)C)[C@@H](C)O)C(C)C)C(=O)N[C@@H](CC(C)C)C(=O)NC(C)(C)C(=O)N[C@H](C(=O)N[C@@H](CCC(=O)O)C(N)=O)[C@@H](C)O [Peptide 490] (H-H[Aib]QGTFTSDVSK[αMeF]LDTK([AEEA-AEEA-γGlu-C20 diacid])RARDFVQWLL[Aib]TE-NH2; N-terminus assumed) | 0.069 | 11.4 | 0.396
CC(C)C[C@H](NC(=O)[C@H](Cc1c[nH]c2ccccc12)NC(=O)[C@H](CCCNC(=N)N)NC(=O)[C@@H](NC(=O)[C@H](Cc1ccccc1)NC(=O)[C@H](CC(=O)O)NC(=O)[C@H](CCCNC(=N)N)NC(=O)[C@H](C)NC(=O)[C@H](CCCNC(=N)N)NC(=O)[C@H](CCCCNC(=O)COCCOCCNC(=O)COCCOCCNC(=O)CC[C@H](NC(=O)CCCCCCCCCCCCCCCCC(=O)O)C(=O)O)NC(=O)[C@@H](NC(=O)[C@H](CC(=O)O)NC(=O)[C@H](CC(C)C)NC(=O)[C@](C)(Cc1ccccc1)NC(=O)[C@H](CCCCN)NC(=O)[C@H](CO)NC(=O)[C@@H](NC(=O)[C@H](CC(=O)O)NC(=O)[C@H](CO)NC(=O)[C@@H](NC(=O)[C@H](Cc1ccccc1)NC(=O)[C@@H](NC(=O)CNC(=O)[C@H](CCC(N)=O)NC(=O)C(C)(C)NC(=O)[C@@H](N)Cc1c[nH]cn1)[C@@H](C)O)[C@@H](C)O)C(C)C)[C@@H](C)O)C(C)C)C(=O)N[C@@H](CC(C)C)C(=O)NC(C)(C)C(=O)N[C@H](C(=O)N[C@@H](CCC(=O)O)C(=O)O)[C@@H](C)O [Peptide 491] (H-H[Aib]QGTFTSDVSK[αMeF]LDTK([AEEA-AEEA-γGlu-C18 diacid])RARDFVRWLL[Aib]TE-OH; N-terminus assumed) | 0.0736 | 6.2 | 0.232
